Values after ≈ are worked out from the molar mass of the structure shown.
Tested on: Escherichia coli
Test: Minimum inhibitory concentration against Escherichia coli
Assay type: functional

| SMILES | MIC |
| --- | --- |
| CC1CN(c2cc3c(cc2F)c(=O)c(C(=O)O)cn3C2CCC2)CC(C)N1 (stereo unspecified) | 0.4 mg/L (≈ 1.07 µM) |
| COc1c(N2CCN(C)CC2)c(F)cc2c(=O)c(C(=O)O)cn(C3CC3)c12 | 0.1 mg/L (≈ 0.266 µM) |
| CC1CN(c2cc3c(cc2F)c(=O)c(C(=O)O)cn3C(C)C)CCN1 (stereo unspecified) | 0.8 mg/L (≈ 2.3 µM) |
| CCNCC1CCN(c2c(F)cc3c(=O)c(C(=O)O)cn(CC)c3c2F)C1 (stereo unspecified) [MERAFLOXACIN] | 0.1 mg/L (≈ 0.264 µM) |
| CC1CN(c2cc3c(cc2F)c(=O)c(C(=O)O)cn3-c2ccc(F)cc2F)CCN1 (stereo unspecified) [TEMAFLOXACIN] | 0.1 mg/L (≈ 0.24 µM) |
| COc1c(N2CCNCC2)c(F)cc2c(=O)c(C(=O)O)cn(C3CC3)c12 | 0.05 mg/L (≈ 0.138 µM) |
| CCNCC1CCN(c2nc3c(cc2F)c(=O)c(C(=O)O)cn3-c2ccc(F)cc2F)C1 (stereo unspecified) | 0.2 mg/L (≈ 0.448 µM) |
| CCNCC1CCN(c2c(F)cc3c(=O)c(C(=O)O)cn(C4CC4)c3c2OC)C1 (stereo unspecified) | 0.1 mg/L (≈ 0.248 µM) |
| CC(C)N1CCN(c2cc3c(cc2F)c(=O)c(C(=O)O)cn3-c2ccc(F)cc2F)CC1 | 0.8 mg/L (≈ 1.8 µM) |
| NCC1CCCN(c2cc3c(cc2F)c(=O)c(C(=O)O)cn3C2CC2)C1 (stereo unspecified) | 0.4 mg/L (≈ 1.11 µM) |
| COc1c(N2CC(C)NC(C)C2)c(F)c(N)c2c(=O)c(C(=O)O)cn(C3CC3)c12 (stereo unspecified) | 0.2 mg/L (≈ 0.495 µM) |
| CCC1CN(c2cc3c(cc2F)c(=O)c(C(=O)O)cn3C2CC2)CCN1 (stereo unspecified) | 0.1 mg/L (≈ 0.278 µM) |
| CNCC1CCN(c2cc3c(cc2F)c(=O)c(C(=O)O)cn3C(C)C)C1 (stereo unspecified) | 3.1 mg/L (≈ 8.58 µM) |
| CCN1CCN(c2cc3c(cc2F)c(=O)c(C(=O)O)cn3C(C)C)CC1 | 1.6 mg/L (≈ 4.43 µM) |
| CC(C)N1CCN(c2cc3c(cc2F)c(=O)c(C(=O)O)cn3C2CC2)CC1 | 0.1 mg/L (≈ 0.268 µM) |
| COc1c(N2CCC(N)C2)c(F)c(N)c2c(=O)c(C(=O)O)cn(C3CC3)c12 (stereo unspecified) | 0.025 mg/L (≈ 0.0664 µM) |
| NCC1CCN(c2nc3c(cc2F)c(=O)c(C(=O)O)cn3C2CC2)C1 (stereo unspecified) | 0.05 mg/L (≈ 0.144 µM) |
| COc1c(N2CCC(CN)CC2)c(F)cc2c(=O)c(C(=O)O)cn(C3CC3)c12 | 0.1 mg/L (≈ 0.257 µM) |
| CC(C)CN1CCN(c2cc3c(cc2F)c(=O)c(C(=O)O)cn3C2CC2)CC1 | 0.2 mg/L (≈ 0.516 µM) |
| CCOc1c(N2CCCC(N)C2)c(F)c(N)c2c(=O)c(C(=O)O)cn(C3CC3)c12 (stereo unspecified) | 0.2 mg/L (≈ 0.495 µM) |
| CCNC(C)C1CCN(c2cc3c(c(N)c2F)c(=O)c(C(=O)O)cn3C2CC2)C1 (stereo unspecified) | 0.1 mg/L (≈ 0.248 µM) |
| CC1CN(c2cc3c(cc2F)c(=O)c(C(=O)O)cn3C2CC2)CCN1 (stereo unspecified) | 0.05 mg/L (≈ 0.145 µM) |
| COc1c(N2CCNC(C)C2)c(F)cc2c(=O)c(C(=O)O)cn(C3CC3)c12 (stereo unspecified) [GATIFLOXACIN] | 0.05 mg/L (≈ 0.133 µM) |
| NCC1CCCN(c2c(F)cc3c(=O)c(C(=O)O)cn(C4CC4)c3c2Cl)C1 (stereo unspecified) | 0.1 mg/L (≈ 0.254 µM) |
| CN1CCN(c2cc3c(cc2F)c(=O)c(C(=O)O)cn3-c2ccc(F)cc2F)CC1 | 0.2 mg/L (≈ 0.479 µM) |
| CC(C)n1cc(C(=O)O)c(=O)c2cc(F)c(N3CCC(N)C3)cc21 (stereo unspecified) | 0.8 mg/L (≈ 2.4 µM) |

| SMILES | MIC |
| --- | --- |
| COc1c(N2CCC(CN)C2)c(F)cc2c(=O)c(C(=O)O)cn(C3CC3)c12 (stereo unspecified) | 0.05 mg/L (≈ 0.133 µM) |
| CC1CN(c2cc3c(cc2F)c(=O)c(C(=O)O)cn3C(C)(C)C)CCN1 (stereo unspecified) | 0.1 mg/L (≈ 0.277 µM) |
| COc1c(N2CC(C)NC(C)C2)c(F)cc2c(=O)c(C(=O)O)cn(C3CC3)c12 (stereo unspecified) | 0.1 mg/L (≈ 0.257 µM) |
| CC1CN(c2cc3c(cc2F)c(=O)c(C(=O)O)cn3C2CCC2)CCN1 (stereo unspecified) | 0.4 mg/L (≈ 1.11 µM) |
| Nc1c(F)c(N2CCC(N)C2)c(F)c2c1c(=O)c(C(=O)O)cn2C1CC1 (stereo unspecified) | 0.006 mg/L (≈ 0.0165 µM) |
| CCNCC1CCN(c2cc3c(cc2F)c(=O)c(C(=O)O)cn3C2CC2)C1 (stereo unspecified) | 0.1 mg/L (≈ 0.268 µM) |
| NC1CCN(c2c(F)cc3c(=O)c(C(=O)O)cn(C4CC4)c3c2F)C1 (stereo unspecified) | 0.013 mg/L (≈ 0.0372 µM) |
| CC1CN(c2cc3c(cc2F)c(=O)c(C(=O)O)cn3C2CC2)CC(C)N1 (stereo unspecified) | 0.05 mg/L (≈ 0.139 µM) |
| CC(N)C1CCN(c2cc3c(c(N)c2F)c(=O)c(C(=O)O)cn3C2CC2)C1 (stereo unspecified) | 0.025 mg/L (≈ 0.0668 µM) |
| CC(C)CN1CCN(c2cc3c(cc2F)c(=O)c(C(=O)O)cn3-c2ccc(F)cc2F)CC1 | 3.1 mg/L (≈ 6.75 µM) |
| CCCCN1CCN(c2cc3c(cc2F)c(=O)c(C(=O)O)cn3C2CC2)CC1 | 0.1 mg/L (≈ 0.258 µM) |
| CCN1CCN(c2cc3c(cc2F)c(=O)c(C(=O)O)cn3C(C)(C)C)CC1 | 0.2 mg/L (≈ 0.533 µM) |
| NCC1CCN(c2cc3c(cc2F)c(=O)c(C(=O)O)cn3C2CC2)C1 (stereo unspecified) | 0.05 mg/L (≈ 0.145 µM) |
| COc1c(N2CCCC(N)C2)c(F)cc2c(=O)c(C(=O)O)cn(C3CC3)c12 (stereo unspecified) | 0.1 mg/L (≈ 0.266 µM) |
| CNCC1CCN(c2c(F)c(N)c3c(=O)c(C(=O)O)cn(C4CC4)c3c2F)C1 (stereo unspecified) | 0.025 mg/L (≈ 0.0637 µM) |
| COc1c(N2CCC(N)CC2)c(F)c(N)c2c(=O)c(C(=O)O)cn(C3CC3)c12 | 0.1 mg/L (≈ 0.256 µM) |
| NCC1CCN(c2nc3c(cc2F)c(=O)c(C(=O)O)cn3-c2ccc(F)cc2F)C1 (stereo unspecified) | 0.05 mg/L (≈ 0.12 µM) |
| NCC1CCCN(c2c(F)c(N)c3c(=O)c(C(=O)O)cn(C4CC4)c3c2F)C1 (stereo unspecified) | 0.05 mg/L (≈ 0.127 µM) |
| CCNCC1CCN(c2c(F)cc3c(=O)c(C(=O)O)cn(C4CC4)c3c2F)C1 (stereo unspecified) [PD-117558] | 0.05 mg/L (≈ 0.128 µM) |
| CCNCC1CCN(c2nc3c(cc2F)c(=O)c(C(=O)O)cn3C2CC2)C1 (stereo unspecified) | 0.1 mg/L (≈ 0.267 µM) |
| CCNCC1CCN(c2c(F)cc3c(=O)c(C(=O)O)cn(C4CC4)c3c2OCC)CC1 | 0.8 mg/L (≈ 1.85 µM) |
| NCC1CCN(c2c(F)cc3c(=O)c(C(=O)O)cn(C4CC4)c3c2F)C1 (stereo unspecified) | 0.025 mg/L (≈ 0.0688 µM) |
| NCC1CCCN(c2c(F)cc3c(=O)c(C(=O)O)cn(C4CC4)c3c2F)C1 (stereo unspecified) | 0.05 mg/L (≈ 0.132 µM) |
| CCn1cc(C(=O)O)c(=O)c2cc(F)c(N3CCC(N)C3)cc21 (stereo unspecified) | 0.4 mg/L (≈ 1.25 µM) |
| COc1c(N2CCCC(CN)C2)c(F)c(N)c2c(=O)c(C(=O)O)cn(C3CC3)c12 (stereo unspecified) | 0.1 mg/L (≈ 0.247 µM) |
